Our source for the Critical pressure and Critical temperature values is the NIST ThermoML archive (doi:10.1021/je0498356).

The conditions of the data set: Liquid.

± gives the expanded uncertainty stated by the source.

Turning to `O=C(O)CCCC(=O)O` [1,5-pentanedioic acid], the Critical pressure turned out to be 4270 ± 200 kPa and the Critical temperature was 840 ± 13 K.

As for `O=C(O)CCCCC(=O)O` [1,6-hexanedioic acid], the Critical pressure amounted to 3850 ± 150 kPa and the Critical temperature is 841 ± 13 K.

Consider `O=C(O)CCCCCC(=O)O` [1,7-heptanedioic acid], for which the Critical pressure is given as 3280 ± 130 kPa and the Critical temperature amounted to 842 ± 13 K.

Regarding `O=C(O)CCCCCCC(=O)O` [1,8-octanedioic acid], the Critical pressure was 2970 ± 120 kPa and the Critical temperature was found to be 843 ± 13 K.

Turning to `O=C(O)CCCCCCCC(=O)O` [1,9-nonanedioic acid], the Critical pressure turned out to be 2720 ± 110 kPa and the Critical temperature amounted to 844 ± 13 K.

Consider `O=C(O)CCCCCCCCC(=O)O` [1,10-decanedioic acid], for which the Critical pressure is on record as 2500 ± 100 kPa and the Critical temperature is reported as 845 ± 13 K.

As to `O=C(O)CCCCCCCCCCCCC(=O)O` [1,12-dodecanedicarboxylic acid], the Critical pressure is 1900 ± 80 kPa and the Critical temperature is listed as 862 ± 13 K.

With `O=C(O)CCCCCCCCCCC(=O)O` [1,12-dodecanedioic acid], the Critical pressure amounted to 2150 ± 90 kPa and the Critical temperature turned out to be 859 ± 13 K.

For the molecule `O=C(O)CCC(=O)O` [butanedioic acid], the Critical pressure is listed as 6590 ± 300 kPa and the Critical temperature came out at 851 ± 20 K.
